# Results reported in article PMC4125290, “Cyclic di-GMP-dependent Signaling Pathways in the Pathogenic Firmicute Listeria monocytogenes” (PLoS Pathogens, 2014).
# Tests used:
# Experiment in all cases: HPLC of c-di-GMP hydrolysis to pGpG
# Type in all cases: biochemical
# Settings in all cases: 250 µM c-di-GMP, 1-5 µM enzyme, 37°C
# [1] = target: T1, PdeD (Lmo0111), PdeD::His6 (Listeria monocytogenes, UniProt Q8YAK7)
# T1 construct: tag kept
# [2] = target: T2, PdeC (Lmo1914), MBP::PdeC (Listeria monocytogenes, UniProt Q8Y5Y9)
# T2 construct: MBP fusion (pMAL-c2x), E. coli DH5alpha, amylose resin; MBP kept
# [3] = target: T3, PdeB (Lmo0131), PdeB::His6 (Listeria monocytogenes, UniProt Q8YAJ4)
# T3 construct: tag kept
# T3 sequence (Q8YAJ4 entry or part of it): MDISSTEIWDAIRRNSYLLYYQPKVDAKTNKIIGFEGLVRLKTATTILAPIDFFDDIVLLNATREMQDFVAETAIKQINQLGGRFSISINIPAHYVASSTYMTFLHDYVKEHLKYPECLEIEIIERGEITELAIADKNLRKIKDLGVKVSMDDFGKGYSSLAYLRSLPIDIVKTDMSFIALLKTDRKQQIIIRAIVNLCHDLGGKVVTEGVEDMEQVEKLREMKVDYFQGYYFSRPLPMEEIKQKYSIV
# T2 sequence (Q8Y5Y9 entry or part of it): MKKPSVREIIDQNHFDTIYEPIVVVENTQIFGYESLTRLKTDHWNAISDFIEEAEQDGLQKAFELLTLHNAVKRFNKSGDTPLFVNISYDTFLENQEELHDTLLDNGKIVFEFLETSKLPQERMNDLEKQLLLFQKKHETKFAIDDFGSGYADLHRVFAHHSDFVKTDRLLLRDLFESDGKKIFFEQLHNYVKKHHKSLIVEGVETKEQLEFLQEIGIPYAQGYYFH
# T1 sequence (Q8YAK7 entry or part of it): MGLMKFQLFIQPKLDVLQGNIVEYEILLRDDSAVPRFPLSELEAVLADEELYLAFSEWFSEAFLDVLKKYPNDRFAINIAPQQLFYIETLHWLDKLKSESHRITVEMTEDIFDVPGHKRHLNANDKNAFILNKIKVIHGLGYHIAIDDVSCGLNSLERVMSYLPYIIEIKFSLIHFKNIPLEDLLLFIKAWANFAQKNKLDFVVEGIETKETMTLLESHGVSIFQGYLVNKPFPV
smiles,measurement,setting,value
Nc1nc2c(ncn2[C@@H]2O[C@@H]3COP(=O)(O)O[C@H]4[C@@H](O)[C@H](n5cnc6c(=O)[nH]c(N)nc65)O[C@@H]4COP(=O)(O)O[C@H]3[C@H]2O)c(=O)[nH]1 [c-di-GMP],HPLC of c-di-GMP hydrolysis to pGpG,[1],all three recombinant proteins possess c-di-GMP PDE activities in vitro
same,HPLC of c-di-GMP hydrolysis to pGpG,[2],all three recombinant proteins possess c-di-GMP PDE activities in vitro
same,HPLC of c-di-GMP hydrolysis to pGpG,[3],all three recombinant proteins possess c-di-GMP PDE activities in vitro
